Laboratory results taken from ChEMBL document CHEMBL3734742, “Discovery of 2-aryloxy-4-amino-quinazoline derivatives as novel protease-activated receptor 2 (PAR2) antagonists” (Bioorg Med Chem, 2015).
Values belong to the molecule of their own block, whether it stands above or below them. The source made the active and inactive calls. No cut-off for these calls is given here.

How the values were obtained:
[1] = target: Proteinase-activated receptor 2 (Homo sapiens) (UniProt P55085); assay: Antagonist activity at protease-activated receptor 2 (unknown origin) expressed in CHO-K1 cells assessed as inhibition of trypsin-induced calcium flux at 10 uM by FLIPR assay; format: functional, cell-based
[2] = target: T1, Proteinase-activated receptor 2 (Homo sapiens, UniProt P55085); assay: Antagonist activity at protease-activated receptor 2 (unknown origin) expressed in CHO-K1 cells assessed as inhibition of trypsin-induced calcium flux by FLIPR assay; format: functional, cell-based
T1 sequence (P55085 whole entry): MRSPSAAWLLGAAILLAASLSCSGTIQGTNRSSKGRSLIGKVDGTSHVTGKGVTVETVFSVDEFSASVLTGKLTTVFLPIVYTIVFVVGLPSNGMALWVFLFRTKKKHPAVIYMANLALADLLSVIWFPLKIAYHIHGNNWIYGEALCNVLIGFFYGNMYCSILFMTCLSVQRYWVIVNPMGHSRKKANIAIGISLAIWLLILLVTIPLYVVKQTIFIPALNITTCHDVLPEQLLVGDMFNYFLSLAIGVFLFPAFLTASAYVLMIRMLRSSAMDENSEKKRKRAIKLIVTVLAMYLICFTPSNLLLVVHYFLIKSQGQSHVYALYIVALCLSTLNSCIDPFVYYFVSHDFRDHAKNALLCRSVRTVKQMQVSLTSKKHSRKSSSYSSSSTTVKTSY

[3] = target: Proteinase-activated receptor 2 (Homo sapiens) (UniProt P55085); assay: Antagonist activity at trypsin-induced protease-activated receptor 2 activation (unknown origin) expressed in CHO-K1 cells assessed as receptor internalization at 30 uM after 1 hr by immuno-fluorescence assay (reference value: 28%); format: cell-based; parameters: scale not given: the % may be the effect or the level left
RAW264.7 [4] = assay: Antiinflammatory activity in mouse RAW264.7 cells assessed as inhibition of LPS-induced PGE2 production at 3 uM for 1 hr followed by stimulation with LPS for 24 hrs […]; format: functional, cell-based
[5] = target: T1, Proteinase-activated receptor 2; assay: Displacement of [3H]furoyl-LIGRL-NH2 from human protease-activated receptor 2 in NCTC-2544 cells; format: cell-based
RAW264.7 [6] = assay: Inhibition of LPS-induced Erk phosphorylation in mouse RAW264.7 cells at 5 to 50 uM for 1 hr followed by stimulation with LPS for 5,10 or 15 mins by western blot analysis; format: cell-based
RAW264.7 [7] = assay: Antiinflammatory activity in mouse RAW264.7 cells assessed as inhibition of LPS-induced PGE2 production at 5 to 50 uM for 1 hr followed by stimulation with LPS for 24 hrs […]; format: functional, cell-based
Mus musculus [8] = assay: Antiinflammatory activity in C57BL/6 mouse assessed as reduction of LPS-induced sepsis at 7.5 mg/kg, po administered 1 hr before LPS challenge measured up to 60 hrs; format: functional; parameters: scale not given: the % may be the effect or the level left
RAW264.7 [9] = assay: Antiinflammatory activity in mouse RAW264.7 cells assessed as inhibition of LPS-induced iNOS expression compound pretreated for 1 hr followed by stimulation with LPS for 24 hrs by Western blot analysis; format: functional, cell-based
RAW264.7 [10] = assay: Antiinflammatory activity in mouse RAW264.7 cells assessed as inhibition of LPS-induced iNOS mRNA level compound pretreated for 1 hr followed by stimulation with LPS for 24 hrs by qRT-PCR analysis; format: functional, cell-based
[11] = target: T2, Proteinase-activated receptor 2 (Mus musculus) (UniProt P55086); assay: Antagonist activity at protease-activated receptor 2 in LPS-stimulated mouse RAW264.7 cells assessed as inhibition of AP-1 activation compound pretreated for 1 hr followed by stimulation with LPS for 8 hrs by luciferase reporter gene assay; format: cell-based
T2 sequence (whole entry): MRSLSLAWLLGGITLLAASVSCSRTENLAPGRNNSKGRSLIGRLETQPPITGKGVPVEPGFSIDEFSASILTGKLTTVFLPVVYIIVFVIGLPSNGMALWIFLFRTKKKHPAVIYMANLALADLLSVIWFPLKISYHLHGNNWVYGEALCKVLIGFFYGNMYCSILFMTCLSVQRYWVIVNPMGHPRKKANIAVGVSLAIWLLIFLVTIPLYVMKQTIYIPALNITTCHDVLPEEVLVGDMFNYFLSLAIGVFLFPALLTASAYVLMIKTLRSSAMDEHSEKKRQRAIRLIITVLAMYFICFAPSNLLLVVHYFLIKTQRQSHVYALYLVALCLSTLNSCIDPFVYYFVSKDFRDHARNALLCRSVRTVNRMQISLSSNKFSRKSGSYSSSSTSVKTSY

[12] = target: T2, Proteinase-activated receptor 2 (Mus musculus); assay: Antagonist activity at protease-activated receptor 2 in LPS-stimulated mouse RAW264.7 cells assessed as inhibition of NF-kappaB activation compound pretreated for 1 hr followed by stimulation with LPS for 8 hrs by luciferase reporter gene assay; format: cell-based
RAW264.7 [13] = assay: Inhibition of LPS-induced JNK phosphorylation in mouse RAW264.7 cells at 5 to 50 uM for 1 hr followed by stimulation with LPS for 5,10 or 15 mins by western blot analysis; format: cell-based
RAW264.7 [14] = assay: Antiinflammatory activity in mouse RAW264.7 cells assessed as inhibition of LPS-induced COX2 expression at 5 to 50 uM for 1 hr followed by stimulation with LPS for 24 hrs by Western blot analysis; format: functional, cell-based
RAW264.7 [15] = assay: Antiinflammatory activity in mouse RAW264.7 cells assessed as inhibition of LPS-induced IL-6 expression compound pretreated for 1 hr followed by stimulation with LPS for 24 hrs by EIA; format: functional, cell-based
RAW264.7 [16] = assay: Antiinflammatory activity in mouse RAW264.7 cells assessed as inhibition of LPS-induced NO production at 5 to 50 uM for 1 hr followed by stimulation with LPS for 24 hrs by Griess reaction; format: functional, cell-based
Mus musculus [17] = assay: Antiinflammatory activity in C57BL/6 mouse assessed as reduction of LPS-induced sepsis at 30 mg/kg, po administered 1 hr before LPS challenge measured up to 60 hrs; format: functional; parameters: scale not given: the % may be the effect or the level left
RAW264.7 [18] = assay: Antiinflammatory activity in mouse RAW264.7 cells assessed as inhibition of LPS-induced IL-1beta expression compound pretreated for 1 hr followed by stimulation with LPS for 24 hrs by EIA; format: functional, cell-based
RAW264.7 [19] = assay: Antiinflammatory activity in mouse RAW264.7 cells assessed as inhibition of LPS-induced TNFalpha expression compound pretreated for 1 hr followed by stimulation with LPS for 24 hrs by EIA; format: functional, cell-based
Mus musculus [20] = assay: Antiinflammatory activity in C57BL/6 mouse assessed as reduction of LPS-induced sepsis at 15 mg/kg, po administered 1 hr before LPS challenge measured up to 60 hrs; format: functional; parameters: scale not given: the % may be the effect or the level left
RAW264.7 [21] = assay: Antiinflammatory activity in mouse RAW264.7 cells assessed as inhibition of LPS-induced COX2 mRNA expression at 5 to 50 uM for 1 hr followed by stimulation with LPS for 4 hrs QT-PCR analysis; format: functional, cell-based
RAW264.7 [22] = assay: Cytotoxicity against mouse RAW264.7 cells assessed as cell viability at 3.125 to 200 uM after 24 hrs by MTT assay; format: cell-based; conditions: raw264.7, 24 h
[23] = target: MAP kinase p38 (Mus musculus) (UniProt P47811+O08911+Q9WUI1+Q9Z1B7); assay: Inhibition of LPS-induced p38 phosphorylation in mouse RAW264.7 cells at 5 to 50 uM for 1 hr followed by stimulation with LPS for 5,10 or 15 mins by western blot analysis; format: cell-based
[24] = target: T1, Proteinase-activated receptor 2; assay: Antagonist activity at protease-activated receptor 2 (unknown origin)

inhibition [1]: inactive
Compound: Cc1ccc(CNc2nc(Oc3ccc(Cl)c(Cl)c3)nc3ccc(F)cc23)o1

inhibition [1]: inactive
Compound: COc1ccc2nc(Oc3ccc(Cl)c(Cl)c3)nc(NCc3ccco3)c2c1

inhibition [1]: < 10%
Compound: Clc1ccc(Oc2nc(NCc3ccco3)c3cc(Cl)ccc3n2)c(Cl)c1

inhibition [1]: inactive
Compound: Clc1ccc(Oc2nc(NCc3ccco3)c3ccccc3n2)cc1Cl

inhibition [1]: inactive
Compound: Cc1ccoc1CNc1nc(Oc2cccc(Cl)c2)nc2ccccc12

inhibition [1]: inactive
Compound: COc1ccc2nc(Oc3cccc(Cl)c3)nc(NCc3ccco3)c2c1

inhibition [1]: inactive
Compound: COc1ccc2nc(Oc3cc(Cl)cc(Cl)c3)nc(NCc3ccco3)c2c1

inhibition [1]: < 10%
Compound: Cc1ccoc1CNc1nc(Oc2ccc(Cl)c(Cl)c2)nc2ccc(F)cc12

inhibition [1]: inactive
Compound: Clc1cc(Cl)cc(COc2nc(NCc3ccco3)c3ccccc3n2)c1

inhibition [1]: 16.5%
Compound: Clc1ccc(COc2nc(NCc3ccco3)c3ccccc3n2)c(Cl)c1

inhibition [1]: inactive
Compound: Cc1ccoc1CNc1nc(Oc2ccc(Cl)cc2Cl)nc2ccccc12

The next lines start with the molecule.

Compound: CCCCCNc1nc(NCc2ccco2)c2cc(F)ccc2n1
IC50 [2]: 690 nM | inhibition [1]: 73.2%

Compound: Cc1ccc(CNc2nc(Oc3cc(Cl)cc(Cl)c3)nc3ccc(F)cc23)o1
Activity [3]: 24% | inhibition [1]: < 10%

Compound: CS(=O)(=O)Nc1ccc([N+](=O)[O-])cc1OC1CCCCC1
inhibition (RAW264.7 [4]): Active

Compound: NCC[C@H](NC(=O)CNC(=O)Nc1ccc2c(c1)c(CN1CCCC1)cn2Cc1c(Cl)cccc1Cl)C(=O)N[C@H](Cc1ccccc1)C(=O)Nc1ccccc1
Ki [5]: 1940 nM

Compound: Cc1ccoc1CNc1nc(Oc2cc(Cl)cc(Cl)c2)nc2ccc(F)cc12
inhibition (RAW264.7 [6]): Active | Activity [3]: 12% | inhibition (RAW264.7 [7]): Active | Activity (Mus musculus [8]): 80% | inhibition (RAW264.7 [9]): Dose-dependent effect | inhibition (RAW264.7 [10]): Dose-dependent effect | inhibition [11]: Dose-dependent effect | inhibition [12]: Dose-dependent effect | inhibition (RAW264.7 [13]): inactive | inhibition (RAW264.7 [14]): Active | inhibition (RAW264.7 [15]): Dose-dependent effect | inhibition (RAW264.7 [16]): Active | Activity (Mus musculus [17]): 20% | inhibition (RAW264.7 [18]): Dose-dependent effect | inhibition (RAW264.7 [19]): Dose-dependent effect | Activity (Mus musculus [20]): 60% | inhibition (RAW264.7 [21]): Active | Activity (RAW264.7 [22]): Non-toxic | inhibition [23]: inactive | IC50 [2]: 2800 nM | inhibition [1]: 47.7%

Compound: Cc1ccc(CNc2nc(Oc3ccc(Cl)cc3Cl)nc3ccc(Cl)cc23)o1
inhibition [1]: inactive

Compound: COc1ccc(Oc2nc(NCc3occc3C)c3ccccc3n2)cc1
inhibition [1]: 23.1%

Compound: COc1ccc2nc(Oc3ccc(Cl)cc3Cl)nc(NCc3occc3C)c2c1
IC50 [2]: > 10000 nM | inhibition [1]: 33.1%

Compound: NCCCC[C@H](NC(=O)CNC(=O)Nc1ccc2c(c1)c(CN1CCCC1)cn2Cc1c(Cl)cccc1Cl)C(=O)N[C@H](Cc1ccccc1)C(=O)NC(c1ccccc1)c1ccccc1
Ki [5]: 627 nM

Compound: CC[C@H](C)[C@H](NC(=O)[C@H](CC1CCCCC1)NC(=O)c1ccno1)C(=O)N1CCC2(C=Cc3ccccc32)CC1
IC50 [24]: 2000 nM
